# T1: 17α-hydroxylase (Homo sapiens, UniProt P05093)
# T1 construct: Human testes were obtained from previously untreated patients undergoing orchidectomy for prostatic cancer; from tissue; host or cells: human testes, microsomes
# T1 sequence (P05093 1-508): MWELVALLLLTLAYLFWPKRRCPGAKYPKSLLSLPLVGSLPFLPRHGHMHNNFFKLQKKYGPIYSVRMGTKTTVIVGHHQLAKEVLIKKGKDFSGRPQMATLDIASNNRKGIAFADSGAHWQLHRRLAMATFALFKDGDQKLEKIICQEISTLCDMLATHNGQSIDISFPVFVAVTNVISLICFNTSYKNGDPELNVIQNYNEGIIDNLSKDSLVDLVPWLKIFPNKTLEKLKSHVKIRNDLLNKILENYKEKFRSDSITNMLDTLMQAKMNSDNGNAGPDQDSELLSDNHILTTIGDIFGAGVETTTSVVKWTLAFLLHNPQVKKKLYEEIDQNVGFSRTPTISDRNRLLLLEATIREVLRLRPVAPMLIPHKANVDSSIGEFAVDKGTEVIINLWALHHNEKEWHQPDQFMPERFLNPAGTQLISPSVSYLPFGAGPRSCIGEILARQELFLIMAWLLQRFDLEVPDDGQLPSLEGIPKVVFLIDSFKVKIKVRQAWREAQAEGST
# T2: C17-C20 lyase (Homo sapiens, UniProt P05093)
# T2 construct: Human testes were obtained from previously untreated patients undergoing orchidectomy for prostatic cancer; from tissue; host or cells: human testes, microsomes
# T2 sequence (P05093 1-508): T1 sequence (P05093 1-508)
# T3: aromatase (Homo sapiens, UniProt P11511)
# T3 construct: using human placental microsomes; from tissue; host or cells: human placenta, microsomes
# T3 sequence (P11511 1-503): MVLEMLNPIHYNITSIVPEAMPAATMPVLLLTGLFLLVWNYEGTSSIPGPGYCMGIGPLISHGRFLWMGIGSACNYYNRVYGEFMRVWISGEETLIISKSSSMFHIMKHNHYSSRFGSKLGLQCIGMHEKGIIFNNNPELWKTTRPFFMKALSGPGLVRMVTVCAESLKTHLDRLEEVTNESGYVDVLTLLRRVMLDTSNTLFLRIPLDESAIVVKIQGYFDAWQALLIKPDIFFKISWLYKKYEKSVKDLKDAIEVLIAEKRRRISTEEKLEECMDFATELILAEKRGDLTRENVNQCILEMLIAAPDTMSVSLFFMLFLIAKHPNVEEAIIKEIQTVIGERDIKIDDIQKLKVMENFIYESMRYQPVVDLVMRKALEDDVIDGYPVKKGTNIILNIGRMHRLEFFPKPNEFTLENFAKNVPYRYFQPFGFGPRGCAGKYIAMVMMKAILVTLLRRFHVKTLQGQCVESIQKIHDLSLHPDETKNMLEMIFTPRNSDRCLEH
# B1: aromatase (Homo sapiens) (protein)
# chain: T3 sequence (P11511 1-503)
# What was measured:
# [1] = target: T1, 17α-hydroxylase; test: Determination of 17α-hydroxylase (human testicular microsomes, 3H-progesterone); assay type: biochemical; conditions: for concentration required to achieve 50% inhibition of hydroxylase, versus the 3-pyridyl (in words): compared with 3-pyridyl
# Method: Human testes were obtained from previously untreated patients undergoing orchidectomy for prostatic cancer. The testes were decapsulated and stored in liquid nitrogen until use. A microsomal preparation was prepared essentially as described by S. E. Barrie et al., J. Steroid Biochem. 6, 1191-5, (1989). The material was then thawed, finely chopped, and homogenised in 0.25M sucrose (5 ml/g wet weight) using a Potter homogeniser. The homogenate was centrifuged at 12000 g for 30 min, and then the microsomes were pelleted by spinning the supernatant at 100,000 g for 1 hr. The pellet was washed by being resuspended in 0.25M sucrose and repelleted. The microsomal pellet was then resuspended in 50 mM sodium phosphate pH 7.4/glycerol (3/1 v/v) and stored in aliquots in liquid nitrogen.
# (§2) The basic assay mixture was EDTA (0.2 mM), dithiothreitol (DTT; 0.1 mM), NADPH (0.25 mM), glucose 6-phosphate dehydrogenase (G6PDH; 6.25 μg/ml), MgCl2 (1 mM), glucose 6-phosphate (G6P; 10 mM) and the substrate, 3H-progesterone (3 μM) in sodium phosphate (50 mm), pH 7.4. The compounds under test were dissolved in 50% DMSO and the final concentrations of ethanol and DMSO were 1% each. The assay reaction was carded out for 1 hour and was terminated by the addition of 2 vols. of methanol-acetonitrile (2:1) containing approx. 100 μM unlabelled progesterone, 17α-hydroxyprogesterone, androstenedione, testosterone, and 16α-hydroxyprogesterone.
# The separation of the steroids by HPLC was carried out using an "Uptight" guard column packed with 40-63 μm Nucleosil C18 and a 10 cm main column packed with 5 μm Nucleosil C18 and 60% methanol as eluant. The radioactivity in the peaks of interest was monitored on-line by mixing the HPLC effluent 1:1 with Ecoscint A (National Diagnostics) scintillation fluid, containing 25% acetonitrile, and passing the mixture through a Berthold LB506C radiochemical monitor. The hydroxylase activity was measured as the production of 17α-hydroxyprogesterone, androstenedione and testosterone.
# The enzyme activity was measured in the presence of at least 4 concentrations of each compound. The data were for the 4-pyridyl and 2-picolyl compounds of Table 1 fitted by linear regression to the Dixon equation (M. Dixon, E.C. Webb, Enzymes, 2nd ed., Academic Press, New York, 1964). Data for all the other compounds were fitted by non-linear regression to the median effect equation of Chou, J. Theoret.
# [2] = target: T2, C17-C20 lyase; test: Determination of C17-C20 lyase (human testicular microsomes, 3H-17α-hydroxyprogesterone); assay type: biochemical; conditions: for concentration required to achieve 50% inhibition of lyase, versus the 3-pyridyl (in words): compared with 3-pyridyl
# Method: The testes were decapsulated and stored in liquid nitrogen until use. […] The material was then thawed, finely chopped, and homogenised in 0.25M sucrose (5 ml/g wet weight) using a Potter homogeniser. The homogenate was centrifuged at 12000 g for 30 min, and then the microsomes were pelleted by spinning the supernatant at 100,000 g for 1 hr. The pellet was washed by being resuspended in 0.25M sucrose and repelleted. The microsomal pellet was then resuspended in 50 mM sodium phosphate pH 7.4/glycerol (3/1 v/v) and stored in aliquots in liquid nitrogen.
# as §2
# The HPLC separation used for the lyase involved a mini-re-column "Uptight Guard Column" packed with PELL-ODS (pellicular octadecyl silica) and a 10 cm. main column "Apex C18" column packed with 5μ APEX-CAT silica.
# The eluant was 38:12:50 methanol:acetonitrile:water flowing at 1 ml/min. The effluent was mixed 1:1 with Ecoscint A containing 5% methanol and 5% acetonitrile and the radioactivity was measured directly by a Berthold LB506C radiochemical detector. The lyase activity was measured as the production of androstenedione and testosterone.
# The enzyme activity was measured in the presence of at least 4 concentrations of each compound.
# [3] = target: T3, aromatase; assay type: biochemical; conditions: human placental microsomes
# Method: Aromatase activity was determined by the method of A. B. Foster et al., J. Med. Chem. 26, 50-54 (1983), using human placental microsomes.
# [4] = tested on: Male HWT mice; test: In vivo organ weight test in mice; conditions: for Mean weight ± standard error, Adrenals / Mean weight ± standard error, Kidneys / Mean weight ± standard error, Prostate / Mean weight ± standard error, Seminal Vesicles / Mean weight ± standard error, Testes: 2 weeks
# Method: (§1) Male HWT mice, 12 weeks old, were treated daily for 2 weeks, with 5 animals per treatment group. The test compounds were the compound of Examples 1 and 4 (as representative of compounds of the invention having the pregenolone-like and progesterone-like skeletons respectively). Ketoconazole was also tested at three different doses. The test compounds were made up in 5% benzyl alcohol, 95% safflower oil, and were given i.p. In addition to an untreated control group of animals, there was also a solvent control group which received the same volume of liquid as the test group (5 ml/kg) but no test compound. All animals were sacrificed 24 hours after the last injection. Blood was collected by cardiac puncture into heparinized tubes, and the plasma used for RIA (radio immunoassay) of testosterone and luteinising hormone. The following organs were removed and weighed: adrenals, prostate, seminal vesicles, testes, kidneys. There was no significant body weight loss in any group of mice during the experiments.
# [5] = tested on: luteinising hormone; test: In vivo endocrine test in mice: plasma luteinising hormone (RIA); conditions: 2 weeks
# Method: as §1
# [6] = design: species or system mice; conditions: mouse, in vivo; for post mortem examination: appearance of organs / post mortem examination: deposits: ip
# Method: as §1
# In Ketoconazole-treated animals, adhesions were found in 2/5,2/5,4/5 of the low/middle/top dose groups. […] The livers were brown in the middle/top dose groups.
# [7] = tested on: testosterone; test: In vivo endocrine test in mice: plasma testosterone (RIA); conditions: 2 weeks
# Method: Male HWT mice, 12 weeks old, were treated daily for 2 weeks, with 5 animals per treatment group. […] The test compounds were made up in 5% benzyl alcohol, 95% safflower oil, and were given i.p. In addition to an untreated control group of animals, there was also a solvent control group which received the same volume of liquid as the test group (5 ml/kg) but no test compound. All animals were sacrificed 24 hours after the last injection. Blood was collected by cardiac puncture into heparinized tubes, and the plasma used for RIA (radio immunoassay) of testosterone and luteinising hormone.
# [8] = substrate: C[C@]12CCC(=O)C=C1CC[C@@H]1[C@@H]2CC[C@]2(C)C(=O)CC[C@@H]12; test: cells, lysate or membranes named; conditions: other: human placental microsomes used
molecule,measurement,setting,value
"C[C@]12CCC(=O)C[C@@H]1CC[C@@H]1[C@@H]2CC[C@]2(C)C(c3cccnc3)=CC[C@@H]12 [Ex. 9, 17-(3-Pyridyl)-5α-androst-16-en-3-one]",IC50,"[1]; approx. 4 nM enzyme, A and B ring variations, read-out: IC50 Hydroxylase (Table 2(a))",4.7 nM
CC12CCC(Oc3c(F)c(F)c(C(F)(F)F)c(F)c3F)CC1=CCC1C2CCC2(C)C(c3cccnc3)=CCC12 (stereo not shown),inhibition of lyase (in words),[2],very poor inhibitor
same,inhibition of hydroxylase (in words),[1],very poor inhibitor
"C[C@]12CC[C@H](O)CC1=CC[C@@H]1[C@@H]2CC[C@]2(C)C(c3cccnc3)=CC[C@@H]12 [Ex. 2, 17-(3-Pyridyl)androsta-5,16-dien-3β-ol]",IC50,[3],> 20 µM
"CC(=O)O[C@H]1CC[C@@]2(C)C(=CC[C@@H]3[C@@H]2CC[C@]2(C)C(c4cccnc4)=CC[C@@H]32)C1 [Ex. 1, 3β-Acetoxy-17-(3-pyridyl)androsta-5,16-diene]","Mean weight ± standard error, Adrenals",[4]; 0.02 mmol/kg/day i.p.,4.3 ± 0.2 mg
same,"Mean weight ± standard error, Kidneys",[4]; 0.02 mmol/kg/day i.p.,604 ± 24 mg
same,"Mean weight ± standard error, Adrenals",[4]; 0.1 mmol/kg/day i.p.,4.0 ± 0.2 mg
same,"Mean weight ± standard error, Kidneys",[4]; 0.1 mmol/kg/day i.p.,500 ± 8 mg
same,"Mean weight ± standard error, Adrenals",[4]; 0.5 mmol/kg/day i.p.,4.7 ± 0.2 mg
same,"Mean weight ± standard error, Kidneys",[4]; 0.5 mmol/kg/day i.p.,449 ± 12 mg
same,LH (Mean ± standard error),[5]; 0.02 mmol/kg/day i.p.,3.4 ± 0.5 ng/mL
same,post mortem examination: appearance of organs,[6],all organs looked normal
same,post mortem examination: deposits,[6],oil/white deposits i.p.
CC(=O)N1CCN(c2ccc(OCC3COC(Cn4ccnc4)(c4ccc(Cl)cc4Cl)O3)cc2)CC1 (stereo not shown) [Ketoconazole],"Mean weight ± standard error, Adrenals",[4]; 0.01 mmol/kg/day i.p.,4.8 ± 0.2 mg
same,"Mean weight ± standard error, Kidneys",[4]; 0.01 mmol/kg/day i.p.,637 ± 22 mg
same,"Mean weight ± standard error, Prostate",[4]; 0.01 mmol/kg/day i.p.,9.1 ± 0.8 mg
same,"Mean weight ± standard error, Seminal Vesicles",[4]; 0.01 mmol/kg/day i.p.,235 ± 18 mg
same,"Mean weight ± standard error, Testes",[4]; 0.01 mmol/kg/day i.p.,141 ± 5 mg
same,"Mean weight ± standard error, Adrenals",[4]; 0.225 mmol/kg/day i.p.,6.1 ± 0.3 mg
same,"Mean weight ± standard error, Kidneys",[4]; 0.225 mmol/kg/day i.p.,574 ± 23 mg
same,"Mean weight ± standard error, Prostate",[4]; 0.225 mmol/kg/day i.p.,10.8 mg
same,"Mean weight ± standard error, Seminal Vesicles",[4]; 0.225 mmol/kg/day i.p.,171 ± 5 mg
same,"Mean weight ± standard error, Testes",[4]; 0.225 mmol/kg/day i.p.,127 ± 7 mg
same,"Mean weight ± standard error, Adrenals",[4]; 0.5 mmol/kg/day i.p.,6.9 ± 0.3 mg
same,"Mean weight ± standard error, Kidneys",[4]; 0.5 mmol/kg/day i.p.,710 ± 30 mg
same,"Mean weight ± standard error, Prostate",[4]; 0.5 mmol/kg/day i.p.,9.3 ± 0.9 mg
same,"Mean weight ± standard error, Seminal Vesicles",[4]; 0.5 mmol/kg/day i.p.,179 ± 20 mg
same,"Mean weight ± standard error, Testes",[4]; 0.5 mmol/kg/day i.p.,133 ± 6 mg
same,effect on adrenal weight,[4]; two highest doses,increase in adrenal weight
same,LH (Mean ± standard error),[5]; 0.1 mmol/kg/day i.p.,0.39 ± 0.14 ng/mL
same,LH (Mean ± standard error),[5]; 0.225 mmol/kg/day i.p.,0.75 ± 0.02 ng/mL
same,LH (Mean ± standard error),[5]; 0.5 mmol/kg/day i.p.,0.76 ± 0.03 ng/mL
same,appearance of livers,[6],brown
same,"gut and peritoneal wall, appearance",[6],seemed to be stuck to the seminal vesicles
C[C@]12CC[C@H](O)CC1=CC[C@@H]1[C@@H]2CC[C@]2(C)C(c3ccncc3)=CC[C@@H]12 [Example 4-pyridyl],"concentration required to achieve 50% inhibition of lyase, versus the 3-pyridyl (in words)",[2],far greater
same,"concentration required to achieve 50% inhibition of hydroxylase, versus the 3-pyridyl (in words)",[1],far greater
C[C@]12CC[C@H](O)CC1=CC[C@@H]1[C@@H]2CC[C@]2(C)C(Cc3ccccn3)=CC[C@@H]12 [Example 2-picolyl],"concentration required to achieve 50% inhibition of lyase, versus the 3-pyridyl (in words)",[2],far greater
same,"concentration required to achieve 50% inhibition of hydroxylase, versus the 3-pyridyl (in words)",[1],far greater
C[C@]12CC[C@H](O)CC1=CC[C@@H]1[C@@H]2CC[C@]2(C)C(c3ccccn3)=CC[C@@H]12 [Example 2-Pyridyl],"concentration required to achieve 50% inhibition of lyase, versus the 3-pyridyl (in words)",[2],far greater
same,"concentration required to achieve 50% inhibition of hydroxylase, versus the 3-pyridyl (in words)",[1],far greater
"C[C@]12CCC(=O)C=C1CC[C@@H]1[C@@H]2CC[C@]2(C)C(c3cccnc3)=CC[C@@H]12 [Ex. 4, 17-(3-Pyridyl)androsta-4,16-dien-3-one]","Mean weight ± standard error, Adrenals",[4]; 0.02 mmol/kg/day i.p.,4.7 ± 0.2 mg
same,"Mean weight ± standard error, Seminal Vesicles",[4]; 0.02 mmol/kg/day i.p.,108 ± 4 mg
same,"Mean weight ± standard error, Adrenals",[4]; 0.1 mmol/kg/day i.p.,4.6 ± 0.4 mg
same,"Mean weight ± standard error, Seminal Vesicles",[4]; 0.1 mmol/kg/day i.p.,61 ± 9 mg
same,"Mean weight ± standard error, Adrenals",[4]; 0.5 mmol/kg/day i.p.,4.9 ± 0.1 mg
same,"Mean weight ± standard error, Seminal Vesicles",[4]; 0.5 mmol/kg/day i.p.,25 ± 1 mg
same,post mortem examination: appearance of organs,[6],all organs looked normal
same,post mortem examination: deposits,[6],white deposits throughout the abdomen
same,Testosterone (Mean ± standard error),[7]; 0.02 mmol/kg/day i.p.,4.5 ± 0.3 nM
same,Testosterone (Mean ± standard error),[7]; 0.1 mmol/kg/day i.p.,3.5 ± 1.0 nM
same,Testosterone (Mean ± standard error),[7]; 0.5 mmol/kg/day i.p.,0.4 ± 0.1 nM
B1,Km,[8],0.039 µM

# Source: patent US5604213A, “17-substituted steroids useful in cancer treatment” (priority 1992, dated 1997)
